Experimental data as given in patent US11053204B2, “Pyrimidinyloxy benzene derivatives as herbicides” (FMC Corporation, priority 2015, dated 2021).

Assays:
Test in all cases: Test C postemergence, plant response rating
Type in all cases: in vivo
[1] = test system: corn (Zea mays); settings: for Corn plant response rating: scale 0 to 100 (0 no effect, 100 complete control)
Method in brief: (§1)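 Visual injury score, 0 = no effect, 100 = complete control, assigned against untreated controls after 13 to 15 d in the greenhouse. Compounds were applied in a surfactant-containing non-phytotoxic solvent mix, preemergence to seeded loam/sand or silt loam soil, or postemergence to 1- to 4-leaf plants (2 to 18 cm).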

[2] = test system: soybean (Glycine max); settings: for Soybean plant response rating: scale 0 to 100 (0 no effect, 100 complete control)
Method in brief: as §1

[3] = test system: foxtail, giant (giant foxtail, Setaria faberii); settings: for Foxtail, Giant plant response rating: scale 0 to 100 (0 no effect, 100 complete control)
Method in brief: as §1

[4] = test system: blackgrass (Alopecurus myosuroides); settings: for Plant response rating, Blackgrass: scale 0 to 100; for Blackgrass plant response rating: scale 0 to 100 (0 no effect, 100 complete control)
Method in brief: as §1

[5] = test system: kochia (Kochia scoparia); settings: for Kochia plant response rating: scale 0 to 100 (0 no effect, 100 complete control)
Method in brief: as §1

[6] = test system: ragweed (common ragweed, Ambrosia elatior); settings: for Ragweed plant response rating: scale 0 to 100 (0 no effect, 100 complete control)
Method in brief: as §1

[7] = test system: nutsedge, yellow (yellow nutsedge, Cyperus esculentus); settings: for Nutsedge, Yellow plant response rating: scale 0 to 100 (0 no effect, 100 complete control)
Method in brief: as §1

[8] = test system: oilseed rape (Brassica napus); settings: for Oilseed Rape plant response rating: scale 0 to 100 (0 no effect, 100 complete control)
Method in brief: as §1

[9] = test system: waterhemp (common waterhemp, Amaranthus rudis); settings: for Waterhemp plant response rating: scale 0 to 100 (0 no effect, 100 complete control)
Method in brief: as §1

[10] = test system: galium (catchweed bedstraw, Galium aparine); settings: for Galium plant response rating: scale 0 to 100 (0 no effect, 100 complete control)
Method in brief: as §1

[11] = test system: oat, wild (wild oat Avena fatua); settings: for Oat, Wild plant response rating: scale 0 to 100 (0 no effect, 100 complete control)
Method in brief: as §1

[12] = test system: velvetleaf (Abutilon theophrasti); settings: for Velvetleaf plant response rating: scale 0 to 100 (0 no effect, 100 complete control)
Method in brief: as §1

[13] = test system: wheat (winter wheat, Triticum aestivum); settings: for Wheat plant response rating: scale 0 to 100 (0 no effect, 100 complete control)
Method in brief: as §1

[14] = test system: lambsquarters (Chenopodium album); settings: for Lambsquarters plant response rating: scale 0 to 100 (0 no effect, 100 complete control)
Method in brief: as §1

[15] = test system: morningglory (Ipomoea coccinea); settings: for Morningglory plant response rating: scale 0 to 100 (0 no effect, 100 complete control)
Method in brief: as §1

[16] = test system: chickweed (common chickweed, Stellaria media); settings: for Chickweed plant response rating: scale 0 to 100 (0 no effect, 100 complete control)
Method in brief: as §1

SMILES: O=C(CCC(F)(F)C(F)(F)F)c1c(Br)cccc1Oc1ncc(Cl)cn1 [Compound 110]
- Plant response rating, Corn ([1]; 16 g ai/ha, scale of 0 to 100): 10
- Plant response rating, Corn ([1]; 31 g ai/ha, scale 0 to 100): 20
- Corn plant response rating ([1]; 62 g ai/ha): 20
- Corn plant response rating ([1]; 125 g ai/ha): 15
- Plant response rating, Soybean ([2]; 16 g ai/ha, scale of 0 to 100): 40
- Plant response rating, Soybean ([2]; 31 g ai/ha, scale 0 to 100): 40
- Soybean plant response rating ([2]; 62 g ai/ha): 50
- Soybean plant response rating ([2]; 125 g ai/ha): 35
- Plant response rating, Foxtail, Giant ([3]; 16 g ai/ha, scale of 0 to 100): 10
- Plant response rating, Foxtail, Giant ([3]; 31 g ai/ha, scale 0 to 100): 10
- Foxtail, Giant plant response rating ([3]; 62 g ai/ha): 25
- Foxtail, Giant plant response rating ([3]; 125 g ai/ha): 25
- Plant response rating, Blackgrass ([4]; 16 g ai/ha): 10
- Plant response rating, Blackgrass ([4]; 31 g ai/ha): 15
- Blackgrass plant response rating ([4]; 62 g ai/ha): 20
- Blackgrass plant response rating ([4]; 125 g ai/ha): 25
- Plant response rating, Kochia ([5]; 16 g ai/ha, scale of 0 to 100): 95
- Plant response rating, Kochia ([5]; 31 g ai/ha, scale 0 to 100): 100
- Kochia plant response rating ([5]; 62 g ai/ha): 100
- Kochia plant response rating ([5]; 125 g ai/ha): 100
- Plant response rating, Ragweed ([6]; 16 g ai/ha, scale of 0 to 100): 40
- Plant response rating, Ragweed ([6]; 31 g ai/ha, scale 0 to 100): 50
- Ragweed plant response rating ([6]; 62 g ai/ha): 60
- Ragweed plant response rating ([6]; 125 g ai/ha): 60
- Plant response rating, Nutsedge, Yellow ([7]; 16 g ai/ha, scale of 0 to 100): 0
- Plant response rating, Nutsedge, Yellow ([7]; 31 g ai/ha, scale 0 to 100): 5
- Nutsedge, Yellow plant response rating ([7]; 62 g ai/ha): 5
- Nutsedge, Yellow plant response rating ([7]; 125 g ai/ha): 5
- Plant response rating, Oilseed Rape ([8]; 16 g ai/ha, scale of 0 to 100): 60
- Plant response rating, Oilseed Rape ([8]; 31 g ai/ha, scale 0 to 100): 60
- Oilseed Rape plant response rating ([8]; 62 g ai/ha): 85
- Oilseed Rape plant response rating ([8]; 125 g ai/ha): 95
- Plant response rating, Waterhemp ([9]; 16 g ai/ha, scale of 0 to 100): 85
- Plant response rating, Waterhemp ([9]; 31 g ai/ha, scale 0 to 100): 90
- Waterhemp plant response rating ([9]; 125 g ai/ha): 95
- Plant response rating, Galium ([10]; 16 g ai/ha, scale of 0 to 100): 60
- Plant response rating, Galium ([10]; 31 g ai/ha, scale 0 to 100): 75
- Galium plant response rating ([10]; 62 g ai/ha): 75
- Galium plant response rating ([10]; 125 g ai/ha): 90
- Plant response rating, Oat, Wild ([11]; 16 g ai/ha, scale of 0 to 100): 20
- Plant response rating, Oat, Wild ([11]; 31 g ai/ha, scale 0 to 100): 30
- Oat, Wild plant response rating ([11]; 62 g ai/ha): 45
- Oat, Wild plant response rating ([11]; 125 g ai/ha): 55
- Plant response rating, Velvetleaf ([12]; 16 g ai/ha, scale of 0 to 100): 50
- Plant response rating, Velvetleaf ([12]; 31 g ai/ha, scale 0 to 100): 40
- Velvetleaf plant response rating ([12]; 125 g ai/ha): 75
- Plant response rating, Wheat ([13]; 16 g ai/ha, scale of 0 to 100): 5
- Plant response rating, Wheat ([13]; 31 g ai/ha, scale 0 to 100): 5
- Wheat plant response rating ([13]; 125 g ai/ha): 15
- Plant response rating, Lambsquarters ([14]; 16 g ai/ha, scale of 0 to 100): 75
- Plant response rating, Lambsquarters ([14]; 31 g ai/ha, scale 0 to 100): 90
- Lambsquarters plant response rating ([14]; 62 g ai/ha): 95
- Lambsquarters plant response rating ([14]; 125 g ai/ha): 98
- Plant response rating, Morningglory ([15]; 16 g ai/ha, scale of 0 to 100): 30
- Plant response rating, Morningglory ([15]; 31 g ai/ha, scale 0 to 100): 50
- Morningglory plant response rating ([15]; 62 g ai/ha): 60
- Morningglory plant response rating ([15]; 125 g ai/ha): 50
- Plant response rating, Chickweed ([16]; 16 g ai/ha, scale of 0 to 100): 60
- Plant response rating, Chickweed ([16]; 31 g ai/ha, scale 0 to 100): 95
- Chickweed plant response rating ([16]; 62 g ai/ha): 95
- Chickweed plant response rating ([16]; 125 g ai/ha): 90

SMILES: N#Cc1cccc(Oc2ncc(Cl)cn2)c1CCCC(F)(F)F [Compound 72]
- Plant response rating, Corn ([1]; 16 g ai/ha, scale 0 to 100): 10
- Plant response rating, Corn ([1]; 31 g ai/ha, scale 0 to 100): 15
- Corn plant response rating ([1]; 62 g ai/ha): 10
- Corn plant response rating ([1]; 125 g ai/ha): 20
- Plant response rating, Soybean ([2]; 16 g ai/ha, scale 0 to 100): 60
- Plant response rating, Soybean ([2]; 31 g ai/ha, scale 0 to 100): 70
- Soybean plant response rating ([2]; 62 g ai/ha): 40
- Soybean plant response rating ([2]; 125 g ai/ha): 70
- Plant response rating, Foxtail, Giant ([3]; 16 g ai/ha, scale 0 to 100): 30
- Plant response rating, Foxtail, Giant ([3]; 31 g ai/ha, scale 0 to 100): 30
- Foxtail, Giant plant response rating ([3]; 62 g ai/ha): 20
- Foxtail, Giant plant response rating ([3]; 125 g ai/ha): 20
- Plant response rating, Blackgrass ([4]; 16 g ai/ha): 5
- Plant response rating, Blackgrass ([4]; 31 g ai/ha): 10
- Blackgrass plant response rating ([4]; 62 g ai/ha): 10
- Blackgrass plant response rating ([4]; 125 g ai/ha): 30
- Plant response rating, Kochia ([5]; 16 g ai/ha, scale 0 to 100): 100
- Plant response rating, Kochia ([5]; 31 g ai/ha, scale 0 to 100): 100
- Kochia plant response rating ([5]; 62 g ai/ha): 100
- Kochia plant response rating ([5]; 125 g ai/ha): 100
- Plant response rating, Ragweed ([6]; 16 g ai/ha, scale 0 to 100): 35
- Plant response rating, Ragweed ([6]; 31 g ai/ha, scale 0 to 100): 50
- Ragweed plant response rating ([6]; 62 g ai/ha): 40
- Ragweed plant response rating ([6]; 125 g ai/ha): 75
- Plant response rating, Nutsedge, Yellow ([7]; 16 g ai/ha, scale 0 to 100): 5
- Plant response rating, Nutsedge, Yellow ([7]; 31 g ai/ha, scale 0 to 100): 10
- Nutsedge, Yellow plant response rating ([7]; 62 g ai/ha): 10
- Nutsedge, Yellow plant response rating ([7]; 125 g ai/ha): 15
- Plant response rating, Oilseed Rape ([8]; 16 g ai/ha, scale 0 to 100): 50
- Plant response rating, Oilseed Rape ([8]; 31 g ai/ha, scale 0 to 100): 60
- Oilseed Rape plant response rating ([8]; 62 g ai/ha): 0
- Oilseed Rape plant response rating ([8]; 125 g ai/ha): 65
- Plant response rating, Waterhemp ([9]; 16 g ai/ha, scale 0 to 100): 85
- Plant response rating, Waterhemp ([9]; 31 g ai/ha, scale 0 to 100): 80
- Waterhemp plant response rating ([9]; 62 g ai/ha): 90
- Waterhemp plant response rating ([9]; 125 g ai/ha): 90
- Plant response rating, Galium ([10]; 16 g ai/ha, scale 0 to 100): 80
- Plant response rating, Galium ([10]; 31 g ai/ha, scale 0 to 100): 80
- Galium plant response rating ([10]; 62 g ai/ha): 5
- Galium plant response rating ([10]; 125 g ai/ha): 98
- Plant response rating, Oat, Wild ([11]; 16 g ai/ha, scale 0 to 100): 5
- Plant response rating, Oat, Wild ([11]; 31 g ai/ha, scale 0 to 100): 5
- Oat, Wild plant response rating ([11]; 62 g ai/ha): 5
- Oat, Wild plant response rating ([11]; 125 g ai/ha): 10
- Plant response rating, Velvetleaf ([12]; 16 g ai/ha, scale 0 to 100): 40
- Plant response rating, Velvetleaf ([12]; 31 g ai/ha, scale 0 to 100): 50
- Velvetleaf plant response rating ([12]; 62 g ai/ha): 40
- Velvetleaf plant response rating ([12]; 125 g ai/ha): 70
- Plant response rating, Wheat ([13]; 16 g ai/ha, scale 0 to 100): 0
- Plant response rating, Wheat ([13]; 31 g ai/ha, scale 0 to 100): 0
- Wheat plant response rating ([13]; 62 g ai/ha): 0
- Wheat plant response rating ([13]; 125 g ai/ha): 5
- Plant response rating, Lambsquarters ([14]; 16 g ai/ha, scale 0 to 100): 75
- Plant response rating, Lambsquarters ([14]; 31 g ai/ha, scale 0 to 100): 85
- Lambsquarters plant response rating ([14]; 62 g ai/ha): 75
- Lambsquarters plant response rating ([14]; 125 g ai/ha): 85
- Plant response rating, Morningglory ([15]; 16 g ai/ha, scale 0 to 100): 75
- Plant response rating, Morningglory ([15]; 31 g ai/ha, scale 0 to 100): 65
- Morningglory plant response rating ([15]; 62 g ai/ha): 40
- Morningglory plant response rating ([15]; 125 g ai/ha): 70
- Plant response rating, Chickweed ([16]; 16 g ai/ha, scale 0 to 100): 65
- Plant response rating, Chickweed ([16]; 31 g ai/ha, scale 0 to 100): 85
- Chickweed plant response rating ([16]; 62 g ai/ha): 90
- Chickweed plant response rating ([16]; 125 g ai/ha): 98
